The test system of the test is Male ICR mice. In words: Forced swimming test (FST) in mice. The settings on record: oral once daily, 26 mg/kg. Format: in vivo. The source says:
A major symptom of depression is decrease of motivational behaviors. In the FST model, the mice were forced to swim in a restricted space. First, they struggle in attempt to escape, which is a motivational behavior. After a period of time, the mice started to show occasional immobility, representing a “despair” mental state. The immobility is regarded as “failure to adapt to stress” and can be served as an indicator of the level of depression. The effectiveness of anti-depression drugs could be derived by measuring the duration of immobility after the mice had been forced to swim for a period of time. The model is sensitive to anti-depression drugs and is widely adopted as a means to screen such drugs. (Porsolt et al., 1977)
Male ICR mice (26±2 g) were used. The mice were housed in polycarbonate cages. […]
The animals were deprived of food but not water for 1.5 h prior to drug administration of. […] The volume of the suspension administered was based on body weight measured immediately prior to each dose, respectively. […]
The studies were carried out on mice according to the method of Porsolt (Porsolt, et al., 1977). […] The duration of immobility time was measured during the final 4 min interval of the test. […]
All data were expressed as mean±SEM, and analyzed using one-way analysis of variance (ANOVA). […]

Structures can show the parent of a compound that is named as a salt.

Molecule `CNCCC(Oc1ccc(C(F)(F)F)cc1)c1ccccc1` (centres unmarked) [Fluoxetine, Fluoxetine Hydrochloride] returned a Duration of immobility (3 days) of 67.6 ± 10.2 s and a Duration of immobility (7 days) of 67.1 ± 8.9 s.

(Values after patent US20060147569A1, “Anti-depression formulations” (priority 2005, published 2006).)
